# Source: patent publication US20070122501A1, “Formulations containing astragalus extracts and uses thereof” (Hong Kong University of Science and Technology, priority 2003, published 2007)
# What was measured:
# [1] = test system: aging (PD34) adult keratinocytes; assay: Scratch (wound healing) assay in aging adult keratinocytes (FIGS. 6, 8, 9); format: cell-based, human; settings: FIG. 8, comparison of extract and PDGF
# Source text: (§1) Cell lines used in these experiments were obtained from Cascade Biologics, Inc. Neonatal keratinocytes (HEKneo-P) were obtained from a pool generated from three donors, designated HEKn(12), PD 8.46; HEKn(15), PD 9.3; and HEKn(16), PD 5.16. Adult keratinocytes were obtained from a single donor, designated HEKa(18). The terms “neonatal” and “adult” refer to the age of the donor, while the terms “young” and “aging” or “late passage” refer to the age of the cell culture, and correspond to the number of population doublings (indicated as PD no.).
# (§2) Cells are plated in flasks (5×10^5 cells per flask) and cultured for two days in a humidified chamber at 5% CO2, 37° C. To create the “wound”, a 2 ml plastic pipette is gently dragged to “scratch” the cell surface. The ideal wound is approximately 2-3 mm wide and 50 mm long (along the long axis of the tissue culture flask). The cells are retreated with medium containing either vehicle (DMSO; control sample) or test compositions at multiple concentrations. […]
# (§3) Amount of wound closure is determined by measuring the width of the wound over time for extract-treated samples relative to vehicle-treated or other control cells. […] Percentage of wound healing is calculated by the following formula: WH=100−[100×Wn/W0], where Wn is the width of the wound on day n and W0 is the width of the wound on day one (immediately after scratching).
# [2] = test system: late passage (PD40) neonatal keratinocytes; assay: Scratch (wound healing) assay in late passage / aging neonatal keratinocytes (FIGS. 7, 10); format: cell-based, human; settings: FIG. 10
# Source text: as §1, §2, §3
substance,measurement,setting,value
PDGF,state of scratched cell layer by day 4,[1],confluent or near-confluent
same,wound closure after four days,[2],complete or near-complete wound closure
